This passage reports inhibition results from patent US8158628B2, “Sulfonylated 1,2,3,4-tetrahydropyrrolo[1,2-a]pyrazine compounds and their use as pharmaceuticals” (Gruenenthal GmbH, priority 2009, dated 2012).

One experiment deals with T1, B1R of the rat (Rattus norvegicus, UniProt P97583).
T1 construct: expressed in transfected cells; host or cells: CHO K1 cells (Chinese hamster ovary), stably transfected
T1 sequence (P97583 1-337): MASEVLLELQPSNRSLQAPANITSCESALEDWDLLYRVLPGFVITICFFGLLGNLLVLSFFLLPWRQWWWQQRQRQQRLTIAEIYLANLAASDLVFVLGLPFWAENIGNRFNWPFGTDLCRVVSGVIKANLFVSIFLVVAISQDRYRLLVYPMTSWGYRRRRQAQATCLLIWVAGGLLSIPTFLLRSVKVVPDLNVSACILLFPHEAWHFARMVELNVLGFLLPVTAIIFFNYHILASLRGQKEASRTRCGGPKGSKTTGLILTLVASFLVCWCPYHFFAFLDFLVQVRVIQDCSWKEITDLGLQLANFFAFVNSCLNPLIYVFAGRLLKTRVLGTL
Nature of the experiment: FLIPR Ca2+ functional assay, B1R antagonism, rat B1R in CHO K1 cells. Conditions: test substance 10 μM; rB1R CHO K1 cells; agonist Des-Arg9 bradykinin at EC80; % of maximum achievable inhibition. It counts as cell-based. The method in brief: (§1)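 IC50 values come from varied compound concentrations applied 10-20 min before an EC80 agonist challenge, with Des-Arg9 bradykinin for rat and Lys-Des-Arg9 bradykinin for human receptor. Ca2+ influx in Fluo-4-loaded CHO K1 transfectants was measured by FLIPR peak fluorescence. Data are % inhibition vs maximum, n=2-3, N>=2.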

Another experiment concerns the target T2, human B1R (Homo sapiens, UniProt P46663).
T2 construct: expressed in transfected cells; host or cells: CHO K1 cells (Chinese hamster ovary), stably transfected
T2 sequence (P46663 1-353): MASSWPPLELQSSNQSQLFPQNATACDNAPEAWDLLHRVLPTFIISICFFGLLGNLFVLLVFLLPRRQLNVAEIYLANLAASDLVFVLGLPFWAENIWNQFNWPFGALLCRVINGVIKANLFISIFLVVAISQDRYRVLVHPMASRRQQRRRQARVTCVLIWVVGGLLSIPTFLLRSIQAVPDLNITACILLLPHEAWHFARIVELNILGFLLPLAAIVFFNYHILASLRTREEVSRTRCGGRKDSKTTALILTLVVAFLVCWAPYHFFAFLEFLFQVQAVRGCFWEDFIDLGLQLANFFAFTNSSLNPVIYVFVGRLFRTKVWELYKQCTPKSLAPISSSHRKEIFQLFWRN
Briefly: FLIPR Ca2+ functional assay, B1R antagonism, human B1R in CHO K1 cells. It counts as cell-based. Conditions: test substance 10 μM; hB1R CHO K1 cells; agonist Lys-Des-Arg9 bradykinin at EC80; % of maximum achievable inhibition. The gist of the method: as §1

The term inhibition denotes the change of the read-out against control, counted positive when it falls.

As for `CCC(C)NCc1ccc2c(c1)CCCC2NC(=O)CC1c2cccn2CCN1S(=O)(=O)c1ccc(C)cc1` (stereo not drawn) [Example 126, N-[6-[(1-Methyl-propylamino)-methyl]-1,2,3,4-tetrahydro-naphthalen-1-yl]-2-[2-(p-tolylsulfonyl)-1,2,3,4-tetrahydro-pyrrolo[1,2-a]pyrazin-1-yl]-acetamide], the inhibition at 10 µM is 102% on B1R of the rat and 99.9% at human B1R.
The matching figures for `Cc1ccc(S(=O)(=O)N2CCn3cccc3C2CC(=O)NC2CCCc3cc(CNCc4ccccc4)ccc32)cc1` (stereo not drawn) [Example 127, N-[6-[(Benzylamino)-methyl]-1,2,3,4-tetrahydro-naphthalen-1-yl]-2-[2-(p-tolylsulfonyl)-1,2,3,4-tetrahydro-pyrrolo[1,2-a]pyrazin-1-yl]-acetamide]: 101% and 97.4%.
The corresponding values for `COc1ccc2cc(S(=O)(=O)N3CCn4cccc4C3CC(=O)NC3CCCc4cc(CN5CCCCC5)ccc43)ccc2c1` (stereo not drawn) [Example 128, 2-[2-[(6-Methoxy-naphthalen-2-yl)sulfonyl]-1,2,3,4-tetrahydro-pyrrolo[1,2-a]pyrazin-1-yl]-N-[6-(piperidin-1-yl-methyl)-1,2,3,4-tetrahydro-naphthalen-1-yl]-acetamide] are 103% and 99.8%.
The matching figures for `Cc1ccc(S(=O)(=O)N2CCn3cccc3C2CC(=O)NC2CCCc3cc(CN4CCCc5ccccc54)ccc32)cc1` (stereo not drawn) [Example 129, 2-[2-(p-Tolylsulfonyl)-1,2,3,4-tetrahydro-pyrrolo[1,2-a]pyrazin-1-yl]-N-[6-(1,2,3,4-tetrahydro-quinolin-1-yl-methyl)-1,2,3,4-tetrahydro-naphthalen-1-yl]-acetamide]: 74.7% and 46.1%.
On to `COc1ccc2cc(S(=O)(=O)N3CCn4cccc4C3CC(=O)NC3CCCc4cc(CN5CCCc6ccccc65)ccc43)ccc2c1` (stereo not drawn) [Example 130, 2-[2-[(6-Methoxy-naphthalen-2-yl)sulfonyl]-1,2,3,4-tetrahydro-pyrrolo[1,2-a]pyrazin-1-yl]-N-[6-(1,2,3,4-tetrahydro-quinolin-1-yl-methyl)-1,2,3,4-tetrahydro-naphthalen-1-yl]-acetamide], for which the inhibition at 10 µM at B1R of the rat came to 98.8%; at human B1R, 73.6%.
The corresponding values for `CCC(C)NCc1ccc2c(c1)CCCC2NC(=O)CC1c2cccn2CCN1S(=O)(=O)c1cccc(C(F)(F)F)c1` (stereo not drawn) [Example 131, N-[6-[(1-Methyl-propylamino)-methyl]-1,2,3,4-tetrahydro-naphthalen-1-yl]-2-[2-[[3-(trifluoromethyl)phenyl]sulfonyl]-1,2,3,4-tetrahydro-pyrrolo[1,2-a]pyrazin-1-yl]-acetamide] are 101% and 99.8%.
On to `CCC(C)NCc1ccc2c(c1)CCCC2NC(=O)CC1c2cccn2CCN1S(=O)(=O)c1ccc(C)c(Cl)c1` (stereo not drawn) [Example 132, 2-[2-[(3-Chloro-4-methyl-phenyl)sulfonyl]-1,2,3,4-tetrahydro-pyrrolo[1,2-a]pyrazin-1-yl]-N-[6-[(1-methyl-propylamino)-methyl]-1,2,3,4-tetrahydro-naphthalen-1-yl]-acetamide], for which the inhibition at 10 µM was determined as 102% at B1R of the rat and 99.8% on human B1R.
The corresponding values for `CNCc1ccc2c(c1)CCCC2NC(=O)CC1c2cccn2CCN1S(=O)(=O)c1ccc(C)cc1` (stereo not drawn) [Example 133, N-[6-(Methylamino-methyl)-1,2,3,4-tetrahydro-naphthalen-1-yl]-2-[2-(p-tolylsulfonyl)-1,2,3,4-tetrahydro-pyrrolo[1,2-a]pyrazin-1-yl]-acetamide] are 104% and 99.4%.
Take `CNCc1ccc2c(c1)CCCC2NC(=O)CC1c2cccn2CCN1S(=O)(=O)c1ccc2cc(OC)ccc2c1` (stereo not drawn) [Example 134, 2-[2-[(6-Methoxy-naphthalen-2-yl)sulfonyl]-1,2,3,4-tetrahydro-pyrrolo[1,2-a]pyrazin-1-yl]-N-[6-(methylamino-methyl)-1,2,3,4-tetrahydro-naphthalen-1-yl]-acetamide]: the inhibition at 10 µM on B1R of the rat is 103%; at human B1R, 99.8%.
The matching figures for `CNCc1ccc2c(c1)CCCC2NC(=O)CC1c2cccn2CCN1S(=O)(=O)c1cccc(C(F)(F)F)c1` (stereo not drawn) [Example 135, N-[6-(Methylamino-methyl)-1,2,3,4-tetrahydro-naphthalen-1-yl]-2-[2-[[3-(trifluoromethyl)phenyl]sulfonyl]-1,2,3,4-tetrahydro-pyrrolo[1,2-a]pyrazin-1-yl]-acetamide]: 104% and 99.6%.
The corresponding values for `CNCc1ccc2c(c1)CCCC2NC(=O)CC1c2cccn2CCN1S(=O)(=O)c1ccc(C)c(Cl)c1` (stereo not drawn) [Example 136, 2-[2-[(3-Chloro-4-methyl-phenyl)sulfonyl]-1,2,3,4-tetrahydro-pyrrolo[1,2-a]pyrazin-1-yl]-N-[6-(methylamino-methyl)-1,2,3,4-tetrahydro-naphthalen-1-yl]-acetamide] are -29.2% and 99.7%.
The corresponding values for `CNCc1ccc2c(c1)CCC(NC(=O)CC1c3cccn3CCN1S(=O)(=O)c1ccc3cc(OC)ccc3c1)C2` (stereo not drawn) [Example 137, 2-[2-[(6-Methoxy-naphthalen-2-yl)sulfonyl]-1,2,3,4-tetrahydro-pyrrolo[1,2-a]pyrazin-1-yl]-N-[6-(methylamino-methyl)-1,2,3,4-tetrahydro-naphthalen-2-yl]-acetamide] are 104% and 99.7%.
On to `CNCc1ccc2c(c1)CCC(NC(=O)CC1c3cccn3CCN1S(=O)(=O)c1ccc(C)c(Cl)c1)C2` (stereo not drawn) [Example 138, 2-[2-[(3-Chloro-4-methyl-phenyl)sulfonyl]-1,2,3,4-tetrahydro-pyrrolo[1,2-a]pyrazin-1-yl]-N-[6-(methylamino-methyl)-1,2,3,4-tetrahydro-naphthalen-2-yl]-acetamide], for which the inhibition at 10 µM was 103% at B1R of the rat and 99.8% at human B1R.
The corresponding values for `CNCc1ccc2c(c1)CCC(NC(=O)CC1c3cccn3CCN1S(=O)(=O)c1cccc(C(F)(F)F)c1)C2` (stereo not drawn) [Example 139, N-[6-(Methylamino-methyl)-1,2,3,4-tetrahydro-naphthalen-2-yl]-2-[2-[[3-(trifluoromethyl)phenyl]sulfonyl]-1,2,3,4-tetrahydro-pyrrolo[1,2-a]pyrazin-1-yl]-acetamide] are 103% and 99.1%.
On to `CNCc1ccc2c(c1)CCC(NC(=O)CC1c3cccn3CCN1S(=O)(=O)c1ccc(C)cc1)C2` (stereo not drawn) [Example 140, N-[6-(Methylamino-methyl)-1,2,3,4-tetrahydro-naphthalen-2-yl]-2-[2-(p-tolylsulfonyl)-1,2,3,4-tetrahydro-pyrrolo[1,2-a]pyrazin-1-yl]-acetamide], for which the values for the inhibition at 10 µM on B1R of the rat and at human B1R were 102% and 96.1%, respectively.
